From US8802688B2, “Substituted acetyl-coa carboxylase inhibitors” (Pfizer Inc., priority 2011, dated 2014)
pIC50: −log10 of the molar value.

Legend:
[1] = biological target: T1, recombinant human ACC2 (rhACC2) (Homo sapiens, UniProt O00763, V2141I); assay: recombinant hACC2 Transcreener ADP detection FP assay; assay type: biochemical; settings: 50 μM ATP, 30 μM acetyl-CoA
T1 construct: a full length Cytomax clone of ACC2 was purchased from Cambridge Bioscience Limited; made in house; host or cells: CHO cells, tetracycline-induced (PcDNA5 FRT TO-TOPO)
T1 sequence (O00763 whole entry V2141I): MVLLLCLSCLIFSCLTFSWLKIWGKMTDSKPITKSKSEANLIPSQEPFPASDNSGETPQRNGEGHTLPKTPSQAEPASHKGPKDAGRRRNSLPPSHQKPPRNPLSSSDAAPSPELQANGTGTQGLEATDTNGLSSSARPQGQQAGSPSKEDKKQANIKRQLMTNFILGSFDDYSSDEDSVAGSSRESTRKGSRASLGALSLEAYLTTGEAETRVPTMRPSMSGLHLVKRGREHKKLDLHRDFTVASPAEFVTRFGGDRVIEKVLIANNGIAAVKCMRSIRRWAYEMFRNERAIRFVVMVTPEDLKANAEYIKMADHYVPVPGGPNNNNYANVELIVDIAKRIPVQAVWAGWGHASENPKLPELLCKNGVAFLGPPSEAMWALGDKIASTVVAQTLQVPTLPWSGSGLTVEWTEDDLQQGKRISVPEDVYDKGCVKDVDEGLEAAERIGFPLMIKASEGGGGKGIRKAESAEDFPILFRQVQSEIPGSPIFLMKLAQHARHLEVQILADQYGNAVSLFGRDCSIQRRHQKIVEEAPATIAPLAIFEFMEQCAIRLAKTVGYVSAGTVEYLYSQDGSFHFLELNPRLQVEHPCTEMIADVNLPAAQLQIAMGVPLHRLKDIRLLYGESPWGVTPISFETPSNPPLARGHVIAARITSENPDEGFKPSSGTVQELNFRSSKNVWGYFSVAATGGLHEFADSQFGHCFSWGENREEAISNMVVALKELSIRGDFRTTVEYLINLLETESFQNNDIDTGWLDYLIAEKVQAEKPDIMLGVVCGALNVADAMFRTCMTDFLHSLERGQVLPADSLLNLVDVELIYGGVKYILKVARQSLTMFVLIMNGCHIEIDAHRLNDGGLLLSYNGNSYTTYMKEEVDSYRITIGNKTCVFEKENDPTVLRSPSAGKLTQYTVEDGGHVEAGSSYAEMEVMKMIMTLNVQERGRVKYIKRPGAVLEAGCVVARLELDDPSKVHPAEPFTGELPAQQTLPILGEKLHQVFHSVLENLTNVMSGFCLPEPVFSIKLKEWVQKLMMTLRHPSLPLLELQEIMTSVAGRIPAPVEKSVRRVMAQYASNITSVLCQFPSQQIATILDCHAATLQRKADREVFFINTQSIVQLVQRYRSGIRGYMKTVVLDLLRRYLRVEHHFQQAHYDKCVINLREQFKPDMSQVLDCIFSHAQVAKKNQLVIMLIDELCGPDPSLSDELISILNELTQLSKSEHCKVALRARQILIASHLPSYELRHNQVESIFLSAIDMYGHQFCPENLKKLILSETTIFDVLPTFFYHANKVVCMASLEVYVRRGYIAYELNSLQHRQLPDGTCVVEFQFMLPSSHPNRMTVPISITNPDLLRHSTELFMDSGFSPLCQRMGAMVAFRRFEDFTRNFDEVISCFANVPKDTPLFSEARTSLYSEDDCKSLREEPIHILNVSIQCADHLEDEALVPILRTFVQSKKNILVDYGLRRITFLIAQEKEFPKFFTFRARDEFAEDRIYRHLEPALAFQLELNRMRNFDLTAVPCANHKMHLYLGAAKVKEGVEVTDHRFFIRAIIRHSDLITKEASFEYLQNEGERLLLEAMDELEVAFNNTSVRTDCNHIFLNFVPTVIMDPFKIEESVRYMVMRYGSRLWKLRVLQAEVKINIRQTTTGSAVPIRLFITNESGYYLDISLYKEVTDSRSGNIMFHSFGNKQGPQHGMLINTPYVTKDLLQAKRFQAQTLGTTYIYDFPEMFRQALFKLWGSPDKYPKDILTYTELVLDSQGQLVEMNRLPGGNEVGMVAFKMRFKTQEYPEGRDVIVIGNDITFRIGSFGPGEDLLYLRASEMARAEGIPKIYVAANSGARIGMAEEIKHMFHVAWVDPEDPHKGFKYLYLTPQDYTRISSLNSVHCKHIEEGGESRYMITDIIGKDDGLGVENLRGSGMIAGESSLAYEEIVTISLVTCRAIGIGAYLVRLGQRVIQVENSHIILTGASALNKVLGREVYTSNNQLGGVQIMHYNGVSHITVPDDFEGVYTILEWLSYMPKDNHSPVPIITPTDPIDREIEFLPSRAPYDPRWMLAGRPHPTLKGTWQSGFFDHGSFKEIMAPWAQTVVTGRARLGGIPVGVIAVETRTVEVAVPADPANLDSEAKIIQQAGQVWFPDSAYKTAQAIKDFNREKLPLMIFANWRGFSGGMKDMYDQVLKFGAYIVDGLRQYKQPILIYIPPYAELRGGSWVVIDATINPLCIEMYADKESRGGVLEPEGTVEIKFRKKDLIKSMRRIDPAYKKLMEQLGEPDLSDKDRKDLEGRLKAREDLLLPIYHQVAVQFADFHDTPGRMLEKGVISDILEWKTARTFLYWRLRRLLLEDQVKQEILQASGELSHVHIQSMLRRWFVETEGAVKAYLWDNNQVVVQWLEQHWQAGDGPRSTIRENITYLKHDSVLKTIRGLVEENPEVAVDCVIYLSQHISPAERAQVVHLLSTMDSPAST
Procedure: (§1) For example direct inhibition of ACC activity, for the compound of Formula (I) was determined using preparations of recombinant human ACC1 (rhACC1) and recombinant human ACC2 (rhACC2). Representative sequences of the recombinant human ACC1 and ACC2 that can be used in the assay are provided herein as SEQ ID NO. 1 and SEQ. ID NO. 2, respectively.
[3] Preparation of rhACC2. Human ACC2 inhibition was measured using purified recombinant human ACC2 (hrACC2). Briefly, a full length Cytomax clone of ACC2 was purchased from Cambridge Bioscience Limited and was sequenced and subcloned into PcDNA5 FRT TO-TOPO (Invitrogen, Carlsbad, Calif.). The ACC2 was expressed in CHO cells by tetracycline induction and harvested in 5 liters of DMEM/F12 with glutamine, biotin, hygromycin and blasticidin with 1 μg/mL tetracycline (Invitrogen, Carlsbad, Calif.). The conditioned medium containing ACC2 was then applied to a Softlink Soft Release Avidin column (Promega, Madison, Wis.) and eluted with 5 mM biotin. 4 mgs of ACC2 were eluted at a concentration of 0.05 mg/mL (determined by A280) with an estimated purity of 95% ([…]). The purified ACC2 was dialyzed in 50 mM Tris, 200 mM NaCl, 4 mM DTT, 2 mM EDTA, and 5% glycerol. The pooled protein was frozen and stored at −80° C., with no loss of activity upon thawing. For measurement of ACC2 activity and assessment of ACC2 inhibition, test compounds were dissolved in DMSO and added to the rhACC2 enzyme as a 5× stock with a final DMSO concentration of 1%.
[4] Measurement of human ACC2 inhibition. hACC2 was assayed in a Costar #3676 (Costar, Cambridge, Mass.) 384-well plate using the Transcreener ADP detection FP assay kit (Bellbrook Labs, Madison, Wis.) using the manufacturer's recommended conditions for a 50 uM ATP reaction. The final conditions for the assay were 50 mM HEPES, pH 7.2, 5 mM MgCl2, 5 mM tripotassium citrate, 2 mM DTT, 0.1 mg/mL BSA, 30 μM acetyl-CoA, 50 μM ATP, and 8 mM KHCO3. Typically, a 10 μl reaction was run for 50 min at 25° C., and 10 μl of Transcreener stop and detect buffer was added and the combination incubated at room temp for an additional 1 hour. The data was acquired on an Envision Fluorescence reader (Perkinelmer) using a 620 excitation Cy5 FP general dual mirror, 620 excitation Cy5 FP filter, 688 emission (S) and a 688 (P) emission filter.
(§2) The results using the recombinant hACC1 and recombinant hACC2 Transcreener assays described above are summarized in the table below for the Compounds of Formula (I) exemplified in the Examples above.

[2] = biological target: T2, recombinant human ACC1 (rhACC1) (Homo sapiens, UniProt Q13085, DEL44-44); assay: recombinant hACC1 Transcreener ADP detection FP assay; assay type: biochemical; settings: 50 μM ATP, 30 μM acetyl-CoA
T2 construct: recombinant baculovirus containing full length human ACC1 cDNA; made in house; host or cells: SF9 insect cells, recombinant baculovirus
Procedure: as §1
[1] Preparation of rhACC1. Two liters of SF9 cells, infected with recombinant baculovirus containing full length human ACC1 cDNA, were suspended in ice-cold lysis buffer (25 mM Tris, pH 7.5; 150 mM NaCl; 10% glycerol; 5 mM imidazole (EMD Bioscience; Gibbstown, N.J.); 2 mM TCEP (BioVectra; Charlottetown, Canada); Benzonase nuclease (10000 U/100 g cell paste; Novagen; Madison, Wis.); EDTA-free protease inhibitor cocktail (1 tab/50 mL; Roche Diagnostics; Mannheim, Germany). Cells were lysed by 3 cycles of freeze-thaw and centrifuged at 40,000×g for 40 minutes (4° C.). Supernatant was directly loaded onto a HisTrap FF crude column (GE Healthcare; Piscataway, N.J.) and eluted with an imidazole gradient up to 0.5 M over 20 column volumes (CV). ACC1-containing fractions were pooled and diluted 1:5 with 25 mM Tris, pH 7.5, 2 mM TCEP, 10% glycerol and direct loaded onto a CaptoQ (GE Healthcare) column and eluted with an NaCl gradient up to 1 M over 20 CV's. Phosphate groups were removed from purified ACC1 by incubation with lambda phosphatase (100 U/10 μM target protein; New England Biolabs; Beverly, Mass.) for 14 hours at 4° C.; okadaic acid was added (1 μM final concentration; Roche Diagnostics) to inhibit the phosphatase. Purified ACC1 was exchanged into 25 mM Tris, pH 7.5, 2 mM TCEP, 10% glycerol, 0.5 M NaCl by 6 hour dialysis at 4° C. Aliquots were prepared and frozen at −80° C.
[2] Measurement of rhACC1 inhibition. hACC1 was assayed in a Costar #3676 (Costar, Cambridge, Mass.) 384-well plate using the Transcreener ADP detection FP assay kit (Bellbrook Labs, Madison, Wis.) using the manufacturer's recommended conditions for a 50 μM ATP reaction. The final conditions for the assay were 50 mM HEPES, pH 7.2, 10 mM MgCl2, 7.5 mM tripotassium citrate, 2 mM DTT, 0.1 mg/mL BSA, 30 μM acetyl-CoA, 50 μM ATP, and 10 mM KHCO3 Typically, a 10 μl reaction was run for 120 min at 25° C., and 10 μl of Transcreener stop and detect buffer was added and the combination incubated at room temp for an additional 1 hour. The data was acquired on a Envision Fluorescence reader (Perkinelmer) using a 620 excitation Cy5 FP general dual mirror, 620 excitation Cy5 FP filter, 688 emission (S) and a 688 (P) emission filter.
as §2

pIC50 [1]	pIC50 [2]	SMILES
8.82	8.09	CC(C)(C)n1cc2c(n1)C(=O)CC1(CCN(C(=O)c3ccc4[nH]c(C(N)=O)cc4c3)CC1)C2 [Example 32]
9.00	8.51	CC(C)(C)n1cc2c(n1)C(=O)CC1(CCN(C(=O)c3ccc4[nH]cc(C(N)=O)c4c3)CC1)C2 [Example 33]
8.55	8.09	CC(C)(C)n1cc2c(n1)C(=O)CC1(CCN(C(=O)c3ccc4cc(C(N)=O)[nH]c4c3)CC1)C2 [Example 34]
8.85	7.92	CC(C)(C)n1cc2c(n1)C(=O)CC1(CCN(C(=O)c3ccc4[nH]c(N)nc4c3)CC1)C2 [Example 35]
8.77	8.40	CCNC(=O)c1n[nH]c2ccc(C(=O)N3CCC4(CC3)CC(=O)c3nn(C(C)(C)C)cc3C4)cc12 [Example 36]
8.89	8.54	CNC(=O)c1n[nH]c2ccc(C(=O)N3CCC4(CC3)CC(=O)c3nn(C(C)(C)C)cc3C4)cc12 [Example 37]
8.96	8.37	CC(C)(C)n1cc2c(n1)C(=O)CC1(CCN(C(=O)c3ccc4[nH]nc(C(=O)NCC(F)(F)F)c4c3)CC1)C2 [Example 38]
8.82	8.01	CNc1nc2cc(C(=O)N3CCC4(CC3)CC(=O)c3nn(C(C)(C)C)cc3C4)ccc2[nH]1 [Example 39]
8.89	8.66	CNc1ccc2ccc(C(=O)N3CCC4(CC3)CC(=O)c3nn(C(C)(C)C)cc3C4)cc2n1 [Example 40]
8.43	7.74	CC(C)(C)n1cc2c(n1)C(=O)CC1(CCN(C(=O)c3ccc4c(C#N)n[nH]c4c3)CC1)C2 [Example 41]
8.74	8.18	CC(C)(C)n1cc2c(n1)C(=O)CC1(CCN(C(=O)c3cnc4c(Cl)c[nH]c4c3)CC1)C2 [Example 42]
8.55	8.19	CC(C)(C)n1cc2c(n1)C(=O)CC1(CCN(C(=O)c3ccc4[nH]nc(C#N)c4c3)CC1)C2 [Example 43]
8.27	7.51	CC(C)(C)n1cc2c(n1)C(=O)CC1(CCN(C(=O)c3cnc4ccc(C(N)=O)cc4c3)CC1)C2 [Example 44]
8.55	7.64	CC(C)(C)n1cc2c(n1)C(=O)CC1(CCN(C(=O)c3cnc4c(C(N)=O)c[nH]c4c3)CC1)C2 [Example 45, 6-[(2-tert-butyl-7-oxo-2,4,6,7-tetrahydro-1′H-spiro[indazole-5,4′-piperidin]-1′-yl)carbonyl]-1H-pyrrolo[3,2-b]pyridine-3-carboxamide]
8.42	7.85	CC(C)(C)n1cc2c(n1)C(=O)CC1(CCN(C(=O)c3cnc4ccc(OCC(N)=O)cc4c3)CC1)C2 [Example 46, 2-({3-[(2-tert-butyl-7-oxo-2,4,6,7-tetrahydro-1′H-spiro[indazole-5,4′-piperidin]-1′-yl)carbonyl]quinolin-6-yl}oxy)acetamide]
8.89	8.28	CC(C)(C)n1cc2c(n1)C(=O)CC1(CCN(C(=O)c3ccc4ccc(N)nc4c3)CC1)C2 [Example 47, 1′-[(2-aminoquinolin-7-yl)carbonyl]-2-tert-butyl-2,4-dihydrospiro[indazole-5,4′-piperidin]-7(6H)-one]
8.25	7.49	O=C1CC2(CCN(C(=O)c3ccc4[nH]ncc4c3)CC2)Cc2cn(C34CC(C3)C4)nc21 [Example 48, 2-bicyclo[1.1.1]pent-1-yl-1′-(1H-indazol-5-ylcarbonyl)-2,4-dihydrospiro[indazole-5,4′-piperidin]-7(6H)-one]
8.08	7.92	NC(=O)c1n[nH]c2ccc(C(=O)N3CCC4(CC3)CC(=O)c3c(cnn3C35CC(C3)C5)C4)cc12 [Example 49, 5-[(1-bicyclo[1.1.1]pent-1-yl-7-oxo-1,4,6,7-tetrahydro-1′H-spiro[indazole-5,4′-piperidin]-1′-yl)carbonyl]-1H-indazole-3-carboxamide]
